Experimental data as given in patent US8912189B2, “Pyridopyrazine derivatives and their use” (Aeterna Zentaris GmbH, priority 2011, dated 2014).

Compound | melting point
CCNC(=S)Nc1ccc2ncc(-c3cnn(Cc4cccc(OCc5ccccc5)c4)c3)nc2n1 [Compound 21, 1-{3-[1-(3-Benzyloxy-benzyl)-1H-pyrazol-4-yl]-pyrido[2,3-b]pyrazin-6-yl}-3-ethyl-thiourea] | 203 to 205 °C
CCNC(=O)Nc1ccc2ncc(-c3cnn(Cc4ccc(Cl)cc4)c3)nc2n1 [Compound 18, 1-{3-[1-(4-Chloro-benzyl)-1H-pyrazol-4-yl]-pyrido[2,3-b]pyrazin-6-yl}-3-ethyl-urea] | 240 to 244 °C
CCNC(=S)Nc1ccc2ncc(-c3cnn(Cc4cc(OC)ccc4OC)c3)nc2n1 [Compound 19, 1-{3-[1-(2,5-Dimethoxy-benzyl)-1H-pyrazol-4-yl]-pyrido[2,3-b]pyrazin-6-yl}-3-ethyl-thiourea] | 225 °C
CCNC(=O)Nc1ccc2ncc(-c3cnn(CCC(N)=O)c3)nc2n1 [Compound 404, 3-{4-[6-(3-Ethyl-ureido)-pyrido[2,3-b]pyrazin-3-yl]-pyrazol-1-yl}-propionamide] | 247 °C
CCNC(=O)Nc1ccc2ncc(-c3ccc(C)o3)nc2n1 [Compound 416, 1-Ethyl-3-[3-(5-methyl-furan-2-yl)-pyrido[2,3-b]pyrazin-6-yl]-urea] | 242 °C
CCNC(=O)Nc1ccc2ncc(-c3cnn(Cc4ccc(O)c(OC)c4)c3)nc2n1 [Compound 54, 1-Ethyl-3-{3-[1-(4-hydroxy-3-methoxy-benzyl)-1H-pyrazol-4-yl]-pyrido[2,3-b]pyrazin-6-yl}-urea] | 237 °C
CCNC(=O)Nc1ccc2ncc(-c3cnn(Cc4cccc(C)c4)c3)nc2n1 [Compound 13, 1-Ethyl-3-{3-[1-(3-methyl-benzyl)-1H-pyrazol-4-yl]-pyrido[2,3-b]pyrazin-6-yl}-urea] | 208 to 210 °C
COc1cccc(Cn2cc(-c3cnc4ccc(NC(=S)NCC(F)(F)F)nc4n3)cn2)c1 [Compound 47, 1-{3-[1-(3-Methoxy-benzyl)-1H-pyrazol-4-yl]-pyrido[2,3-b]pyrazin-6-yl}-3-(2,2,2-trifluoro-ethyl)-thiourea] | 217 °C
CCNC(=O)Nc1ccc2ncc(-c3cnn(Cc4ccc(OC(F)F)cc4)c3)nc2n1 [Compound 11, 1-{3-[1-(4-Difluoromethoxy-benzyl)-1H-pyrazol-4-yl]-pyrido[2,3-b]pyrazin-6-yl}-3-ethyl-urea] | 239 °C
CCNC(=O)Nc1ccc2ncc(-c3cnn(CCCCc4ccccc4)c3)nc2n1 [Compound 16, 1-Ethyl-3-{3-[1-(4-phenyl-butyl)-1H-pyrazol-4-yl]-pyrido[2,3-b]pyrazin-6-yl}-urea] | 182 °C
CCNC(=O)Nc1ccc2ncc(-c3cnn(Cc4cccc(S(C)(=O)=O)c4)c3)nc2n1 [Compound 64, 1-Ethyl-3-{3-[1-(3-methanesulfonyl-benzyl)-1H-pyrazol-4-yl]-pyrido[2,3-b]pyrazin-6-yl}-urea] | 218 °C
CCNC(=S)Nc1ccc2ncc(-c3cnn(Cc4cccnc4)c3)nc2n1 [Compound 24, 1-Ethyl-3-[3-(1-pyridin-3-ylmethyl-1H-pyrazol-4-yl)-pyrido[2,3-b]pyrazin-6-yl]-thiourea] | 238 °C
CCNC(=S)Nc1ccc2ncc(-c3cnn(Cc4cccc(C)c4F)c3)nc2n1 [Compound 48, 1-Ethyl-3-{3-[1-(2-fluoro-3-methyl-benzyl)-1H-pyrazol-4-yl]-pyrido[2,3-b]pyrazin-6-yl}-thiourea] | 242 to 245 °C
CCNC(=S)Nc1ccc2ncc(-c3cnn(CCCc4ccccc4)c3)nc2n1 [Compound 44, 1-Ethyl-3-{3-[1-(3-phenyl-propyl)-1H-pyrazol-4-yl]-pyrido[2,3-b]pyrazin-6-yl}-thiourea] | 206 to 208 °C
CCNC(=O)Nc1ccc2ncc(-c3cnn(CCCc4ccccc4)c3)nc2n1 [Compound 9, 1-Ethyl-3-{3-[1-(3-phenyl-propyl)-1H-pyrazol-4-yl]-pyrido[2,3-b]pyrazin-6-yl}-urea] | 251 °C
CCNC(=S)Nc1ccc2ncc(-c3cnn(Cc4cccc(OC)c4OC)c3)nc2n1 [Compound 26, 1-{3-[1-(2,3-Dimethoxy-benzyl)-1H-pyrazol-4-yl]-pyrido[2,3-b]pyrazin-6-yl}-3-ethyl-thiourea] | 218 to 222 °C
CCNC(=S)Nc1ccc2ncc(-c3cnn(Cc4cc(OC)c(OC)c(OC)c4)c3)nc2n1 [Compound 46, 1-Ethyl-3-{3-[1-(3,4,5-trimethoxy-benzyl)-1H-pyrazol-4-yl]-pyrido[2,3-b]pyrazin-6-yl}-thiourea] | 232 °C
CCNC(=O)Nc1ccc2ncc(-c3cnn(Cc4ccc(OC)c(O)c4)c3)nc2n1 [Compound 56, 1-Ethyl-3-{3-[1-(3-hydroxy-4-methoxy-benzyl)-1H-pyrazol-4-yl]-pyrido[2,3-b]pyrazin-6-yl}-urea] | 250 °C
CCNC(=O)Nc1ccc2ncc(-c3cnn(Cc4cc(OC)c(OC)c(OC)c4)c3)nc2n1 [Compound 1, 1-Ethyl-3-{3-[1-(3,4,5-trimethoxy-benzyl)-1H-pyrazol-4-yl]-pyrido[2,3-b]pyrazin-6-yl}-urea] | 219 °C

Compound | melting point
CCNC(=S)Nc1ccc2ncc(-c3cnn(Cc4cc(OC)cc(OC)c4)c3)nc2n1 [Compound 39, 1-{3-[1-(3,5-Dimethoxy-benzyl)-1H-pyrazol-4-yl]-pyrido[2,3-b]pyrazin-6-yl}-3-ethyl-thiourea] | 230 °C
CCNC(=S)Nc1ccc2ncc(-c3cnn(Cc4ccc5c(c4)OCO5)c3)nc2n1 [Compound 5, 1-[3-(1-Benzo[1,3]dioxol-5-ylmethyl-1H-pyrazol-4-yl)-pyrido[2,3-b]pyrazin-6-yl]-3-ethyl-thiourea] | 244 °C
CCNC(=O)Nc1ccc2ncc(-c3cnn(CCNC(=O)OC(C)(C)C)c3)nc2n1 [Compound 406, (2-{4-[6-(3-Ethyl-ureido)-pyrido[2,3-b]pyrazin-3-yl]-pyrazol-1-yl}ethyl)-carbamic acid tert-butyl ester] | 235 °C
CCNC(=S)Nc1ccc2ncc(-c3cnn(Cc4ccc(OC)c(OC)c4OC)c3)nc2n1 [Compound 43, 1-Ethyl-3-{3-[1-(2,3,4-trimethoxy-benzyl)-1H-pyrazol-4-yl]-pyrido[2,3-b]pyrazin-6-yl}-thiourea] | 213 °C
CCNC(=O)Nc1ccc2ncc(-c3cnn(Cc4cccc(OC(F)F)c4)c3)nc2n1 [Compound 3, 1-{3-[1-(3-Difluoromethoxy-benzyl)-1H-pyrazol-4-yl]-pyrido[2,3-b]pyrazin-6-yl}-3-ethyl-urea] | 198 °C
CCNC(=S)Nc1ccc2ncc(-c3cnn(Cc4ccc(OC)cc4)c3)nc2n1 [Compound 23, 1-Ethyl-3-{3-[1-(4-methoxy-benzyl)-1H-pyrazol-4-yl]-pyrido[2,3-b]pyrazin-6-yl}-thiourea] | 237 °C
CCNC(=O)Nc1ccc2ncc(-c3cnn(Cc4cccc(OCCOC)c4)c3)nc2n1 [Compound 66, 1-Ethyl-3-(3-{1-[3-(2-methoxy-ethoxy)-benzyl]-1H-pyrazol-4-yl}-pyrido[2,3-b]pyrazin-6-yl)-urea] | 201 °C
COCNC(=S)Nc1ccc2ncc(-c3cnn(Cc4cccc(OC)c4)c3)nc2n1 [Compound 33, 1-{3-[1-(3-Methoxy-benzyl)-1H-pyrazol-4-yl]-pyrido[2,3-b]pyrazin-6-yl}-3-methoxymethyl-thiourea] | 187 °C
CCNC(=S)Nc1ccc2ncc(-c3cnn(Cc4ccc(C)cc4)c3)nc2n1 [Compound 20, 1-Ethyl-3-{3-[1-(4-methyl-benzyl)-1H-pyrazol-4-yl]-pyrido[2,3-b]pyrazin-6-yl}-thiourea] | 241 °C
CCNC(=O)Nc1ccc2ncc(-c3csc(C(=O)O)c3)nc2n1 [Compound 212, 4-[6-(3-Ethyl-ureido)-pyrido[2,3-b]pyrazin-3-yl]-thiophene-2-carboxylic acid] | 250 °C (dec.)
COCCNC(=S)Nc1ccc2ncc(-c3cnn(Cc4ccccc4)c3)nc2n1 [Compound 31, 1-[3-(1-Benzyl-1H-pyrazol-4-yl)-pyrido[2,3-b]pyrazin-6-yl]-3-(2-methoxy-ethyl)-thiourea] | 219 °C
CCNC(=S)Nc1ccc2ncc(-c3cnn(Cc4cc(C)cc(F)c4)c3)nc2n1 [Compound 25, 1-Ethyl-3-{3-[1-(3-fluoro-5-methyl-benzyl)-1H-pyrazol-4-yl]-pyrido[2,3-b]pyrazin-6-yl}-thiourea] | 257 to 259 °C
CCNC(=S)Nc1ccc2ncc(-c3cnn(Cc4ccc(Cl)cc4)c3)nc2n1 [Compound 50, 1-{3-[1-(4-Chloro-benzyl)-1H-pyrazol-4-yl]-pyrido[2,3-b]pyrazin-6-yl}-3-ethyl-thiourea] | 249 °C
CCNC(=O)Nc1ccc2ncc(-c3cnn(Cc4ccc(C)cc4)c3)nc2n1 [Compound 15, 1-Ethyl-3-{3-[1-(4-methyl-benzyl)-1H-pyrazol-4-yl]-pyrido[2,3-b]pyrazin-6-yl}-urea] | 217 to 220 °C
COCCNC(=S)Nc1ccc2ncc(-c3cnn(Cc4cccc(OC)c4)c3)nc2n1 [Compound 32, 1-{3-[1-(3-Methoxy-benzyl)-1H-pyrazol-4-yl]-pyrido[2,3-b]pyrazin-6-yl}-3-(2-methoxy-ethyl)-thiourea] | 215 °C
COCNC(=S)Nc1ccc2ncc(-c3cnn(Cc4ccc(OC)c(OC)c4)c3)nc2n1 [Compound 35, 1-{3-[1-(3,4-Dimethoxy-benzyl)-1H-pyrazol-4-yl]-pyrido[2,3-b]pyrazin-6-yl}-3-methoxymethyl-thiourea] | 188 °C
CCNC(=O)Nc1ccc2ncc(-c3ccc(CO)s3)nc2n1 [Compound 396, 1-Ethyl-3-[3-(5-hydroxymethyl-thiophen-2-yl)-pyrido[2,3-b]pyrazin-6-yl]-urea] | 222 °C
COCCNC(=S)Nc1ccc2ncc(-c3cnn(Cc4ccc(OC)c(OC)c4)c3)nc2n1 [Compound 7, 1-{3-[1-(3,4-Dimethoxy-benzyl)-1H-pyrazol-4-yl]-pyrido[2,3-b]pyrazin-6-yl}-3-(2-methoxy-ethyl)-thiourea] | 198 °C
CCNC(=S)Nc1ccc2ncc(-c3cnn(Cc4cccc(N(C)C)c4)c3)nc2n1 [Compound 37, 1-{3-[1-(3-Dimethylamino-benzyl)-1H-pyrazol-4-yl]-pyrido[2,3-b]pyrazin-6-yl}-3-ethyl-thiourea] | 215 °C
